Test results published in US8178524B2, “Noribogaine in the treatment of pain and drug addiction” (Demerx, Inc., priority 1997, dated 2012).

Target: T1, μ-opioid receptor (Rattus norvegicus, UniProt P33535)
T1 construct: from tissue; host or cells: rat (Sprague Dawley) thalamic membranes
Assay: Stimulation of [35S]GTPγS binding to rat thalamic membranes (receptor activation of G proteins)
Assay type: biochemical, Rat (Sprague Dawley)

T1 sequence (P33535 whole entry): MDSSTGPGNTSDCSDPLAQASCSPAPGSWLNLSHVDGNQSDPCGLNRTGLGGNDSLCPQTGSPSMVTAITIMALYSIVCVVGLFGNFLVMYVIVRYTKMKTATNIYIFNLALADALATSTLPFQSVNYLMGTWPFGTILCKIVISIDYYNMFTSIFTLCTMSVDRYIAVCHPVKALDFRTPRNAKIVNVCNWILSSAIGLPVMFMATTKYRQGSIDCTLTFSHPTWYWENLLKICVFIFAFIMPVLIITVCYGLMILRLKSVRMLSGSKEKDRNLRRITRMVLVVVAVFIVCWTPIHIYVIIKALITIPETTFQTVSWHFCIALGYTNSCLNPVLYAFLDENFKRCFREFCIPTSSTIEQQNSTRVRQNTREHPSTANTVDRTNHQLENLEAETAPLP

SMILES	stimulation of [35S]GTPγS binding (even at concentrations above 100 μM)	agonist efficacy at the μ-opioid receptor (conclusion from [35S]GTPγS binding results)	level of [35S]GTPγS binding stimulated vs maximal number of binding sites occupied after DAMGO stimulation (relative to DAMGO stimulation of G proteins)
CC[C@H]1C[C@H]2C[C@H]3c4[nH]c5ccc(OC)cc5c4CCN(C2)C13 [Ibogaine]	weak stimulation		
CC[C@H]1C[C@H]2C[C@H]3c4[nH]c5ccc(O)cc5c4CCN(C2)C13 [Noribogaine, 12-hydroxyibogamine]		full agonist	in close agreement
